Source: patent US20090029369A1, “GENETIC SELECTION SYSTEM TO IDENTIFY PROTEASES, PROTEASE SUBSTRATES AND PROTEASE INHIBITORS” (priority 2005, published 2009)
Residue numbers refer to the chain shown, from its start.

Legend:
CMV protease [1] = molecular target: T1, CMV protease (Human cytomegalovirus, UniProt P16753); assay: yeast growth selection assay: RLY07 cells co-expressing Trp1(194)-M substrate and CMV protease; format: cell-based; set-up: The CMV protease gene encoding amino acids 1-256 of the 75 kDa precursor was obtained by PCR from CMV infected MRC5 human cells; expressed in transfected cells; host or cells: Saccharomyces cerevisiae RLY07 (pdr5Δ snq2Δ yor1Δ); Protease on CEN4-ARS1 plasmid pMH51 under the GAL1 promoter; settings: for effect of increasing concentrations on cell proliferation: concentration series, active protease, ~2 days at 30° C., 96-well plates
Protocol: (§1) RLY07 cells transformed with the different TRP1-M constructs and a plasmid encoding the CMV protease or the empty vector were inoculated in 3 ml of 2% galactose -ura -leu medium and grown at 30° C. to OD600 1. They were washed with 5 ml H2O and resuspended in 2% galactose -ura -leu -trp medium supplemented with 10% glycerol (=growth selection medium, glycerol promotes CMV protease dimerisation and subsequent proteolytic activity) and diluted to a start OD600 0.01. For the experiments with the coxackievirus 3C protease, preculture medium was 2% glucose -ura -leu, assay medium was 2% glucose -ura -leu trp, and inoculation OD600 0.001. At time zero, assay cultures at the aforesaid start OD600 were distributed in 96-well microtiter plates, with a volume of 150 μl per well, and incubated without shaking at 30° C. At the time points indicated in the “results” section, plates were shaken to resuspend cells before being submitted to light scattering measurement at 595 nm in a Tecan Genios reader for determining cell density.
CMV protease inhibitors BI31 and BI36 (Boeringher Ingelheim, Quebec) were dissolved in DMSO and added to the assay cultures at time zero of the growth assay. Final DMSO concentration was 1%.
RLY07 cells co-expressing Trp1^194-M substrate and the CMV protease were incubated with a concentration series of BI31 and BI36 in 96-well microtiter plates and cultivated under selective conditions. […] Importantly, despite this toxicity BI31 still stimulates growth of cells expressing the active protease (triangles). For example, at 50 μM cell density is multiplied by a factor 4 despite 25% toxicity.

RLY07 cells = assay: growth of RLY07 cells expressing the inactive, point-mutated CMV protease (toxicity control); format: cell-based, S. cerevisiae
Protocol: as §1
CMV protease inhibitors BI31 and BI36 (Boeringher Ingelheim, Quebec) were dissolved in DMSO and added to the assay cultures at time zero of the growth assay. Final DMSO concentration was 1%. […]

CMV protease [2] = molecular target: T1, CMV protease; assay: Western blot of Trp1(194)-M substrate cleavage by CMV protease in yeast; format: cell-based; set-up: The CMV protease gene encoding amino acids 1-256 of the 75 kDa precursor was obtained by PCR from CMV infected MRC5 human cells; expressed in transfected cells; host or cells: Saccharomyces cerevisiae RLY07; Protease on plasmid pMH51 under the GAL1 promoter
Protocol: Yeast whole cell extracts were prepared as described by Burke et al. (Burke, Dawson et al. 2000). Proteins were separated by SDS-PAGE and Western blot analysis was performed according to standard procedures (Ausubel et al., 2003, Current Protocols in Molecular Biology). An HA-monoclonal antibody from Sigma (clone 3F10) was used at a concentration of 30 ng/ml to detect expression of TRP1(194)-M.
The Western blot was performed to provide biochemical evidence for inhibition of cleavage of CMV protease by compound BI36 (FIG. 5B). […] As in the Western blot on FIG. 3C, unfortunately no cleavage products could be detected.

[3] = molecular target: Trp1-2C/3A substrate: yeast Trp1p with the 13 amino acid coxsackievirus B3 2C/3A cleavage sequence inserted after Gly194 (Saccharomyces cerevisiae; coxsackievirus B3) (UniProt P00912); assay: cell-based or functional assay
[4] = molecular target: Trp1(194)-M (long): yeast Trp1p with the 39 amino acid CMV M-site cleavage sequence inserted after Gly194 (Saccharomyces cerevisiae; human cytomegalovirus) (UniProt P00912); assay: cell-based or functional assay
[5] = molecular target: Trp1(194)-M (short): yeast Trp1p with the 13 amino acid CMV M-site cleavage sequence inserted after Gly194 (Saccharomyces cerevisiae; human cytomegalovirus) (UniProt P00912); assay: cell-based or functional assay
[6] = molecular target: T2, Trp1(194)-M with HA tags at both the N-terminus and the C-terminus, P00912
T2 chain: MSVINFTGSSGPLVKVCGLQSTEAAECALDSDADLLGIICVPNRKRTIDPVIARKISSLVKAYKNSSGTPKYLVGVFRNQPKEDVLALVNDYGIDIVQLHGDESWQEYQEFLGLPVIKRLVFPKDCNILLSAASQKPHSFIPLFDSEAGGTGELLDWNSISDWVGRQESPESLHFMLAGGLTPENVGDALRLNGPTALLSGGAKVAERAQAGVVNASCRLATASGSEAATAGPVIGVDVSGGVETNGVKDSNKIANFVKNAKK

[7] = molecular target: point-mutated Trp1(194)-M (A→E) substrate with HA tags, as blotted, P00912

CN(Cc1ccc(C(F)(F)F)cc1)C(=O)N1C(=O)C[C@@H]1CSc1ncccn1 [BI31]
factor by which cell density is multiplied (CMV protease [1]; 50 μM, cells expressing the active protease): 4
effect of increasing concentrations on cell proliferation (CMV protease [1]): dose-dependent increase of cell proliferation
toxicity (RLY07 cells; 50 μM): 25%
toxic effect on cells (decrease of cell proliferation) (RLY07 cells; increasing concentrations, cells expressing inactive protease): dose-dependent toxic effect

CN(Cc1ccc([N+](=O)[O-])cc1)C(=O)N1C(=O)C[C@@H]1CSc1nnnn1C [BI36]
EC50 (CMV protease [1]): 31 µM
CMV protease inhibition judged from OD600 versus cells expressing inactive protease (CMV protease [1]; 100 μM): almost completely inhibited
effect of increasing concentrations on cell proliferation (CMV protease [1]): dose-dependent increase of cell proliferation
inhibition of proteolysis (Western blot) (CMV protease [2]; 10 μM): only slightly inhibited
inhibition of cleavage (Western blot) (CMV protease [2]; 100 μM): inhibits the cleavage almost completely
inhibition of substrate cleavage (Western blot) (CMV protease [2]; concentration series 100 μM, 30 μM, 10 μM): prevented substrate cleavage in a dose-dependent manner

cysteine protease 3C from coxsackievirus B3 (from UniProt P03313 1541-1723) (enzyme)
cell growth in selective medium lacking tryptophan after 27 h at 30° C., against cells expressing only the substrate [3]: 60%

human cytomegalovirus (CMV) protease, amino acids 1-256 of the 75 kDa precursor (from UniProt P16753 1-256) (enzyme)
proliferation reduction in medium lacking tryptophan for 38 h [4]: 85%
OD600 of co-expressing RLY07 cells in liquid selective medium after 36 hours, against control cells with an empty plasmid instead of the protease plasmid [5]: 35%
proliferation reduction in medium lacking tryptophan for 38 h (FIG. 3B, lanes 1, 2) [5]: 35%

B1: human cytomegalovirus (CMV) protease, amino acids 1-256 of the 75 kDa precursor (protein)
chain: MTMDEQQSQAVAPVYVGGFLARYDQSPDEAELLLPRDVVEHWLHAQGQGQPSLSVALPLNINHDDTAVVGHVAAMQSVRDGLFCLGCVTSPRFLEIVRRASEKSELVSRGPVSPLQPDKVVEFLSGSYAGLSLSSRRCDDVEAATSLSGSETTPFKHVALCSVGRRRGTLAVYGRDPEWVTQRFPDLTAADRDGLRAQWQRCGSTAVDASGDPFRSDSYGLLGNSVDALYIRERLPKLRYDKQLVGVTERESYVKA
anti-HA Western blot of yeast extracts, full-length 33 kDa substrate band (FIG. 3C, lane 2) [6]: Co-expression of active CMV protease (lane 2) causes disappearance of the full-length substrate
anti-HA Western blot, 33 kDa band (FIG. 5B, lane 2) [6]: co-expressing the active protease instead of the inactive version causes disappearance of the 33 kDa band
anti-HA Western blot of yeast extracts, full-length substrate band (FIG. 3C, lane 4) [7]: active protease has no effect on the point-mutated Trp1(194)-M (A→E) substrate, as the band is also present

B2: inactive version of the CMV protease harbouring the S(132) A mutation at the catalytic site (protein)
chain: B1 chain with S132A
anti-HA Western blot of yeast extracts, full-length 33 kDa substrate band (FIG. 3C, lane 3) [6]: the inactive CMV protease does not cleave the Trp1(194)-M substrate (since the full-length substrate band does not disappear)
anti-HA Western blot, 33 kDa band (FIG. 5B, lane 1) [6]: A 33 kDa band corresponds to the full-length Trp1(194)-M substrate upon co-expression with inactive CMV protease
